In patent publication US12297192B2, “Crystal form of pyrimidine sulfonamide compound and preparation method therefor” (WUXI BIOCITY BIOPHARMACEUTICS CO., LTD., priority 2019, dated 2025):
Where two headings read alike, the source gives them in different places.

Key:
[1] = Pharmacokinetics accompanying the efficacy in the MCT-induced rat model of pulmonary hypertension; type: in vivo, SD rats; details: day 21, mean, n = 3; for MRT inf: read-out: MRT0-inf; for MRT last: read-out: MRT0-last
Procedure: Blood samples were taken before and after dosing on the day of the endpoint, at time points of 0, 0.25, 0.5, 1, 2, 4, 6 and 8 h. The rats were placed in a fixator, 250 μL of blood was collected from the tail vein, transferred to an EP tube with anticoagulant (5-8 μL of 15% EDTA), inverted and shaken, and immediately placed on wet ice for temporary storage. The collected blood samples were placed in centrifugal machines and centrifuged at 4° C., 3000 rpm for 15 min. The plasma was collected after centrifugation and immediately placed on dry ice. After all samples have been collected and transferred to cryopreservation at −80° C. for pharmacokinetic analysis.
Blood samples were collected before and after dosing on day 21 and collected at time points 0, 0.25, 0.5, 1, 2, 4, 6 and 8 h for analysis of plasma drug concentrations of the compound of formula (I) and Macitentan.

[2] = tested on: pulmonary hypertension in SD rats induced by monocrotaline (MCT); assay: In vivo pharmacodynamic evaluation, monocrotaline (MCT)-induced pulmonary hypertension model; details: for 21-day weight change rate / PCNA positivity rate / Percentage of middle pulmonary artery intima-media thickness / Right ventricular ejection fraction / Right ventricular hypertrophy index / Right ventricular systolic pressure / Right ventricular wall thickness: 21 days, Mean ± SEM, n = 12
Source text: The animal model of pulmonary hypertension in SD rats induced by monocrotaline (MCT) was used in this study to examine the pharmacological effects of the test compound on a rat model of pulmonary hypertension.
• Species: Rat • Strain: Sprague-Dawley • Age at arrival at animal house: 5 weeks • Gender: Male • Animal weight at the start of the experiment: 200-260 g • Number: 88 (81 for pharmacodynamic (PD) and pharmacokinetic (PK) tests and 7 for PK-blank matrix) • Supplier: Shanghai SLAC Experimental Animals Co. • Certificate of the animals: 20170005008695 Other Reagent Information
Solutions of 3 mg/mL Macitentan, 0.1 mg/mL, 0.3 mg/mL and 1 mg/mL the compound of formula (I): an appropriate amount of the compound was weighed and added to a flask with an appropriate volume. PEG 400 of 20% of the total volume was added. Heating and stirring were conducted at 40° C. Tween 80 of 0.5% of the total volume was added. Heating and stirring were conducted at 40° C. Deionized water of 70-75% of the volume was added. Heating and stirring were conducted at 40° C. The pH was adjusted with 5 N NaOH until became clear. Then the pH was reversely adjusted to less than 9 with 6 N HCl and 1 N HCl. The remaining volume was made up with deionized water to achieve the total volume. The final pH was determined (9±0.1).
After the animals had been acclimatized for about 1 week, the animals were randomized into 9 groups according to body weight and the condition of the animal, as shown in Table 15.
Monitoring Indicators Monitoring Indicators in PD Tests • 1) Daily monitoring of the general condition of the animals and their body weights; • 2) Right ventricular function tests: right ventricular ejection fraction (RVEF), right ventricular wall thickness (RVWT); • 3) Hemodynamic tests: right ventricular systolic pressure (RVSP); • 4) Determination of the right ventricular hypertrophy index (RVHI): RV/(LV+SEP); • 5) […] staining to observe PAWT/IHC staining to observe PCNA as the endpoint detection. Monitoring Indicators in PK Tests • 1) Daily monitoring of the general condition of the animals and their body weights; • 2) Plasma: determination of the pharmacokinetic parameters of the compounds in plasma. Test Method B-Mode Ultrasonic Detection of RVEF, RVWT
Rats were anesthetized with 30 mg/mL pentobarbital sodium (2 mL/kg, ip) and RVEF, RVWT were measured using a small animal ultrasound instrument (VEVO-1100).
Rats were anesthetized with 30 mg/mL sodium pentobarbital (2 mL/kg, ip), fixed onto a surgical plate in supine position, and shaved on the neck. A skin incision was made on the neck. The subcutaneous tissue and muscle layer were bluntly dissected. And the left carotid artery and right jugular vein were stripped. A rat-specific right heart catheter (a PE tube with an external diameter of about 1.5 mm and a small arc-shaped curve at the distal end) connected to a pressure transducer and filled with 0.3% heparin sodium solution was inserted into the right external jugular vein. The arc of the pulmonary artery catheter was kept downwards during the operation and the pulmonary artery catheter was threaded towards the right atrium. The pressure waveform was used to judge whether it had reached the heart. The catheter was deflected towards the left and pushed forward into the right ventricle.
The heart was removed. The atria and great vessels were removed. Blotted to dryness with filter paper. The right ventricle was stripped and weighed to calculate RVHI=RV/(LV+SEP).
After euthanasia of the rats, the middle lobe of the right lung was removed, perfused using saline and placed in 4% paraformaldehyde for fixation for the purpose of pathological examination.
All data was entered into an Excel document and expressed as mean (Mean)±standard error of mean (SEM). One-way ANOVA with Dunnett's t test was used to analyze and compare the data of each group. Differences between two groups were compared using the unpaired two-tailed t-test method.

[3] = Stability test of Crystal Form A in different solvents (XRPD after 3 days stirring in saturated solutions); type: physicochemical; details: for Crystalline (form by XRPD, 3 days later) / Status (3 days later): 0.3 mL
Procedure: The crude compound of formula (I) was dissolved in dichloromethane at 38-40° C., filtered while hot, concentrated under reduced pressure to dryness to obtain mixed crystals of formula (I). Saturated solutions of mixed crystals of the compound of formula (I) in THF and ACN were prepared at 50° C., respectively.
The suspension was centrifuged. The precipitate was taken and dried overnight in a vacuum oven at 30° C. The dried product was subjected to XRPD to determine the status of the crystal forms.

[4] = Sprague-Dawley, rat, plasma, po, 1 mg/kg gavage
[5] = Sprague-Dawley, rat, plasma, po, 3 mg/kg gavage
[6] = Sprague-Dawley, rat, plasma, po, 30 mg/kg gavage

## COCCNS(=O)(=O)Nc1ncnc(OCCOc2ncc(Br)cn2)c1-c1ccc2c(c1)OCO2 [Compound of formula (I)]
[1]; 1 mg/kg gavage
  AUC0-inf/AUC0-last: 111%
  Tlast: 8.00 h
[1]; 3 mg/kg gavage
  AUC0-inf/AUC0-last: 132%
  AUC(0-inf): 5540 ng·h/mL
  Tlast: 8.00 h
[1]; Sprague-Dawley, rat, plasma, po, 1 mg/kg, 1 mg/kg gavage, read-out: AUC0-inf
  AUC(0-inf): 1410 ng·h/mL
[1]; Sprague-Dawley, rat, plasma, po, 3 mg/kg, 3 mg/kg gavage, read-out: AUC0-inf
  AUC(0-inf): 5230 ng·h/mL
[1]; [4]
  AUC(0-t): 1270 ng·h/mL
  Cmax: 345 nM
  Tmax: 1 h
  half-life: 2.3 h
  MRT inf: 3.64 h
  MRT last: 2.83 h
[1]; [5]
  AUC(0-t): 4220 ng·h/mL
  Cmax: 1120 nM
  Tmax: 1 h
  half-life: 3.64 h
  MRT inf: 5.52 h
  MRT last: 3.04 h
[2]; 1 mg/kg PO/QD
  21-day weight change rate: 43.33 ± 1.56%
  PCNA positivity rate: 3.6 ± 0.69 %
  Percentage of middle pulmonary artery intima-media thickness: 40.44 ± 1.13 %
  Right ventricular ejection fraction: 58.48 ± 2.11 %
  Right ventricular hypertrophy index: 0.40 ± 0.01
  Right ventricular systolic pressure: 40.72 ± 3.38 mmHg
  Right ventricular wall thickness: 1.16 ± 0.05 mm
[2]; 3 mg/kg PO/QD
  21-day weight change rate: 41.23 ± 3.47%
  PCNA positivity rate: 3.56 ± 0.66 %
  Percentage of middle pulmonary artery intima-media thickness: 35.44 ± 1.55 %
  Right ventricular ejection fraction: 58 ± 1.80 %
  Right ventricular hypertrophy index: 0.38 ± 0.03
  Right ventricular systolic pressure: 36.70 ± 3.81 mmHg
  Right ventricular wall thickness: 1.11 ± 0.05 mm
[2]; 10 mg/kg PO/QD
  21-day weight change rate: 42.04 ± 3.07%
  PCNA positivity rate: 2.85 ± 0.65 %
  Percentage of middle pulmonary artery intima-media thickness: 40.11 ± 1.07 %
  Right ventricular ejection fraction: 59.86 ± 2.29 %
  Right ventricular hypertrophy index: 0.36 ± 0.02
  Right ventricular systolic pressure: 37.82 ± 3.10 mmHg
  Right ventricular wall thickness: 1.10 ± 0.05 mm
[2]; doses of 1, 3 and 10 mg/kg
  Indicators of pulmonary hypertension and right ventricular function (in words): significantly improved

## CCCNS(=O)(=O)Nc1ncnc(OCCOc2ncc(Br)cn2)c1-c1ccc(Br)cc1 [Macitentan, reference compound]
[1]; 30 mg/kg gavage
  Tlast: 8.00 h
[1]; [6]
  AUC(0-t): 11000 ng·h/mL
  Cmax: 1840 nM
  Tmax: 4.08 h
  MRT last: 4.38 h
[2]; 30 mg/kg gavage once a day
  21-day weight change rate: 45.75 ± 2.14%
  PCNA positivity rate: 4.43 ± 0.42%
  Percentage of middle pulmonary artery intima-media thickness: 46.56 ± 1.07 %
  Right ventricular ejection fraction: 58.87 ± 1.71 %
  Right ventricular hypertrophy index: 0.36 ± 0.03
  Right ventricular systolic pressure: 38.71 ± 3.52 mmHg
  Right ventricular wall thickness: 1.13 ± 0.04 mm

## COCCNS(=O)(=O)Nc1ncnc(OCCOc2ncc(Br)cn2)c1-c1ccc2c(c1)OCO2
[3]; Acetonitrile, 25 °C
  Crystalline (form by XRPD, 3 days later): Crystal Form A
  Status (3 days later): Precipitation
[3]; Acetonitrile, 50 °C
  Crystalline (form by XRPD, 3 days later): Crystal Form A
  Status (3 days later): Precipitation
[3]; Tetrahydrofuran, 25 °C
  Crystalline (form by XRPD, 3 days later): Crystal Form A
  Status (3 days later): Precipitation
[3]; Tetrahydrofuran, 50 °C
  Crystalline (form by XRPD, 3 days later): Crystal Form A
  Status (3 days later): Precipitation
[3]; acetonitrile and tetrahydrofuran at both 25° C. and 50° C.
  Stability in solvents (conclusion in words): Experimental conclusion: Crystal Form A of the compound of formula (I) had good stability in acetonitrile and tetrahydrofuran at both 25 °C and 50 °C
